Laboratory results published in patent US6291527A (priority 1998, dated 2001).
Entries after “also recorded” stand apart in the source; their conditions may differ. Read-outs that look alike come from different tables or passages of the source.

Key:
[1] = tested on: inflammatory exudate (IE); test: foreign body (sponge) method in the rat: inflammatory exudate volume; assay type: in vivo; settings: rat, oral, 10 mg/kg, 8 hours
Description: (§1) These tests involved the use of 100 male CD strain rats (Charles River, Calco, LC, Italy) weighing 180±8 g. The animals were fasted for 12 hours (water ad libitum) before being used for the experiment.
(§2) The inflammatory reaction with the formation of exudate was induced by using sterilized polyester sponges (4×1.5×0.5 cm) soaked in carrageen dissolved at a 2% concentration in sterile physiological solution. The rats were anesthetized lightly with ether and two sponges per rat were implanted subcutaneously in a previously shaven dorsal area.
(§3) The sponges were removed 8 hours later after having sacrificed the animals by ether euthanasia, and immediately placed in large polyethylene 50 ml test tubes containing 10 ml of heparinized physiological solution. The test tubes were then subjected to centrifugation (1000 rotations; 15 minutes), followed by removal of the sponges and accurate measurement of the volume of the remaining fluid. Always using the Higgs et al. method, the acid lipids present in the fluid were extracted in chloroform with prior dilution in ethanol and acidification to pH 3. After complete evaporation of the chloroform, the remaining dry residue was dissolved in physiological solution and used for the immunoenzymatic assay of prostaglandin E2 (PGE2).
(§4) All the other reagents used for the tests were purchased from Merck-Bracco (Milan, Italy).

prostaglandin E2 (PGE2) = test: foreign body (sponge) method in the rat: PGE2 in the inflammatory exudate (immunoenzymatic assay); assay type: in vivo; settings: rat, oral, 10 mg/kg, 8 hours
Description: as §1, §2, §3, §4

[2] = high quantities, intact and abraded skin, also long term; cited from earlier work
[3] = 100 mg i.m., cited from earlier work
[4] = Ketoprofen gel, cited from earlier work
[5] = 100 mg i.m., approx. 3 hours before operation; cited from earlier work
[6] = synovial fluid, 50 mg oral; cited from earlier work
[7] = in vivo; cited from earlier work
rat = settings: cited from earlier work
[8] = cited from earlier work
carrageen edema = carrageen edema test in the rat (hind paw volume, plethysmometer); settings: rat, oral
[9] = once a day for three days, 12 hours

Which results are given for `CC(C(=O)O)c1cccc(C(=O)c2ccccc2)c1` (stereo not drawn) [Ketoprofen, 3-Benzoyl-α-methylbenzeneacetic acid]?
% inhibition versus controls of IE [1]: 58.6%; IE (inflammatory exudate) volume ([1]; mean ± MSE, controls 5.15 ± 0.28): 2.13 ± 0.15 mL; % inhibition versus controls of PGE2 (prostaglandin E2 (PGE2)): 49.7%; PGE2 concentration in the inflammatory exudate (prostaglandin E2 (PGE2); mean, controls 98.7 ± 4.7): 49.6 ng/mL; tolerability / toxicity following dermal application [2]: excellent tolerability and lack of acute and chronic toxicity; also recorded: did not induce any local or general harm; penetration into the joints ([3]; 15 minutes): penetrates promptly into the joints; serum and synovial concentration at equilibrium ([3]; 3.5 hours): 1.3 µg/mL; mean resident time in the joints vs serum [3]: about three times longer than that observed in serum; time of equilibrium of serum and synovial concentrations [3]: 3.5 h; AUC of the free Ketoprofen fraction in serum ([3]; serum): 127 ng·h/mL; time of maximum serum concentration ([3]; serum): 30 min; AUC of the free Ketoprofen fraction in synovial fluid ([3]; synovial fluid): 119 ng·h/mL; concentration when first detectable ([4]; 2nd hour, matrix not stated): 6.3 ng/mL; concentration in capsular tissue [4, 9]: 2.36 µg/g; concentration in intraarticular adipose tissue [4, 9]: 4.70 µg/g; concentration in synovial fluid [4, 9]: 1.31 µg/g; concentration in the joint vs systemic circulation [4]: greater active substance concentration in the joint than in systemic circulation; duration of constant values [4]: 12 h; time to peak concentration [4]: after six hours; mean value in blood [5]: 1.39 µg/g; mean value in bone [5]: 0.25 µg/g; mean value in fat [5]: 0.28 µg/g; mean value in muscle [5]: 0.26 µg/g; mean value in synovial fluid [5]: 0.85 µg/g; mean value in synovial membrane [5]: 0.32 µg/g; time of synovial peak [6]: approximately two hours after the plasma peak; elimination with the feces [7]: 1%; oral LD50 (rat): 165 mg/kg; time to peak concentration ([8]; intramuscular): ≤ 30 min; intraarticular concentrations vs serum and plasma, conclusion ([8]; various routes of administration): reach peak levels later with respect to those observable in serum and plasma, but remain at higher levels than the latter for a longer period after treatment and always with higher values compared to those present in circulatory flow; anti-inflammatory / anti-edematogenic effect (carrageen edema): also resulted as having anti-inflammatory activity; evolution of paw volume (delta in ml) at 1st hour (carrageen edema; 10 mg/kg, 1st hour, mean ± MSE): 0.19 ± 0.02 mL; evolution of paw volume (delta in ml) at 2nd hour (carrageen edema; 10 mg/kg, 2nd hour, mean ± MSE): 0.33 ± 0.03 mL; evolution of paw volume (delta in ml) at 3rd hour (carrageen edema; 10 mg/kg, 3rd hour, mean ± MSE): 0.41 ± 0.02 mL; evolution of paw volume (delta in ml) at 4th hour (carrageen edema; 10 mg/kg, 4th hour, mean ± MSE): 0.42 ± 0.02 mL; evolution of paw volume (delta in ml) at 5th hour (carrageen edema; 10 mg/kg, 5th hour, mean ± MSE): 0.40 ± 0.03 mL; evolution of paw volume (delta in ml) at 6th hour (carrageen edema; 10 mg/kg, 6th hour, mean ± MSE): 0.37 ± 0.03 mL; % inhibition vs controls (paw edema AUC) (carrageen edema; 10 mg/kg, p < 0.001): 54.1%; AUC (mean ± MSE) of increase in paw volume (carrageen edema; 10 mg/kg, paw volume (delta in ml) vs time (0 to 6 hours), controls 4.23 ± 0.26): 1.94 ± 0.10
